For data set [1], the system named is Jurkat cells. As to the kind of experiment: IFN-gamma secretion by Jurkat cells, ELISA. The data set is classed as cell-based, human. The following applies: 16 hours. Here is the method:
Jurkat cells were cultured in the absence or presence of various amounts of SSG for 16 hours. The cells and culture medium supernatants were separated by centrifugation (1,000 g, 10 min). The amounts of IFN-gamma in the culture medium supernatants were quantified using an ELISA kit (R.D. system, Minneapolis, Minn.) following the manufacturer's protocol.

For data set [2] the following is noted: standard dosage 10-20 mg/kg/day; cited from earlier work.
Data set [3] has as its system TF-1 cells. Kind of data set: TF-1 cell proliferation assay. The data set is classed as cell-based, human. The following applies: 50 μg/ml. Here is the method:
The murine hematopoietic cell line Baf3 was maintained in RPMI 1640 medium supplemented with 10% fetal calf serum (FCS) and murine IL-3 (20 units/ml) as described previously in Damen et al., J. Biol. Chem. 270, 23402 (1995). Human myeloid cell line TF-1 was maintained in RPMI 1640 supplemented with 10% FCS and 40 ng/ml of recombinant human GM-CSF as described previously in Thomassen et al., Clin. Immunol. 95, 85 (2000). For cell proliferation assays, cells were washed in 10% FCS medium twice, resuspended in 10% FCS medium, incubated at 37° C. for 16 hours, and then cultured at 37° C. in 10% FCS medium containing various amounts of cytokines, sodium stibogluconate, or potassium antimonyl tartrate for 3-6 days as indicated. The cell numbers in proliferation assays were determined by an MTT assay or by microscopic cell counting as indicated.

In data set [4] the test system is human prostate carcinoma DU145 xenografts. As to the kind of experiment: DU145 xenografts in nude mice. The following applies: daily 440 mg/kg. It is filed as in vivo. Here is the method:
Nude mice bearing WM9 or DU145 xenografts were treated with IFN-alpha (500,000 U, s.c., daily), sodium stibogluconate (12 mg Sb, s.c., daily) or both. […] The dosage of sodium stibogluconate corresponds to approximately 440 mg Sb/kg body weight (average mouse body weight 27 g), substantially higher than the standard therapeutic dose of 20 mg Sb/kg and the high dose (143 mg Sb/kg) that was clinically used by accident without serious toxicity. This dose of sodium stibogluconate was based on a previous observation in a pilot study that mice could tolerate daily dose of 20 mg Sb (approximately 700-800 mg Sb/kg). […]
For each of the cell lines, each of 16 mice received subcutaneous injection at the chest area of 3×10^6 cells/site (WM9) or 2×10^6 cells/site (DU145), two sites/mouse, on day 0. […] Tumor size was measured with a caliper to determine the two perpendicular diameters of each tumor. Tumor volume was calculated using the method of the NCI (length×width 2 in millimeters/2=volume in cubic millimeters).
Athymic nude mice (nu/nu, NCR), 4 weeks old (Taconic), were inoculated (s.c.) in the flanks with DU145 cells (3×10^6 cells/site) on day 0. […] Tumor volume was measured and calculated using the formula for a prolate spheroid (V=4/3 7 a^2b) (Lindner, et al. 1997). […]

Data set [5] has as its system tumor-infiltrating and spleen immune cells (F4/80+, CD4+, CD8+). Kind of data set: immunohistochemistry of Renca tumors and spleen. It is filed as in vivo, Balb/c mice. The following applies: mouse, in vivo. Here is the method: Major internal organs and Renca tumors harvested from mice were fixed in 10% formalin or snap frozen in liquid nitrogen. H & E-stained tissue sections of the fixed samples were prepared and evaluated by microscopy as described previously (Yi, T., M. K. Pathak, D. J. Lindner, M. E. Ketterer, C. Farver, and E. C. Borden. 2002. Anticancer activity of sodium stibogluconate in synergy with IFNs. J Immunol 169:5978). Preparation of frozen tissue sections and immunohistochemistry were performed following established procedures (Joliat, M. J., P. A. Lang, B. L. Lyons, L. Burzenski, M. A. Lynes, T. Yi, J. P. Sundberg, and L. D. Shultz. 2002. Absence of CD5 dramatically reduces progression of pulmonary inflammatory lesions in SHP-1 protein-tyrosine phosphatase-deficient ‘viable motheaten’ mice. J Autoimmun 18:105). The antibodies used for immunohistochemistry were anti-CD4 (rat mAb, clone GK1.5, BD Biosciences, Franklin Lakes, N.J.), anti-CD8 (rat mAb, clone 53-6.7.5, BD Biosciences, Franklin Lakes, N.J.), anti-F4/80 (rat mAb, clone A3-1, Serotec, Oxford, UK) and anti-Asialo GM1 (rabbit polyclonal, Cedarlane, Hornby, Canada). […] Tissue sections of 2 mice/group were evaluated. The number of immune cells was semi-quantified based on the following scheme: […], 0-1 positive cells/40×field; +, 2-5 positive cells/40×field; ++, 6-10 positive cells/40×field, etc.

As for `O.O.O.O.O.O.O.O.O.O=C([O-])[C@@H]1[O][Sb]2([O-])([O][Sb]34([OH])[O][C@H]([C@H](O)CO)[C@H]([O]3)[C@H](C(=O)[O-])[O]4)[O][C@H]([C@H](O)CO)[C@@H]1[O]2.[Na+].[Na+].[Na+]` [sodium stibogluconate], in data set [1], the IFN-gamma secretion result is on record as “increased amounts of IFN-gamma”. In data set [2], the serum levels is no less than 10000 ng/mL. The “GM-CSF-induced proliferation of TF-1 cells” value in data set [3] (GM-CSF 5-40 ng/ml) is “augmented”. For the same compound, the “growth inhibition activity of IFN-alpha on TF-1 cells in presence of drug” value in data set [3] (with GM-CSF and IFN-alpha) is “enhanced”. For the same compound, the “toxicity in DU145 tumor mice” value in data set [4] was “no obvious toxicity”. Further, the “numbers of tumor-infiltrating T cells or NK cells” value in data set [5] is given as “little effect”.

(Values after patent US20070202079A1, “Therapeutic compositions and methods useful in modulating protein tyrosine phosphatases” (priority 2006, published 2007).)
